Assay [1] has as its target T1, relaxin receptors in the atria of rat heart (Rattus norvegicus, UniProt Q6R6I6).
T1 construct: The frozen tissues were sectioned to 16 μm thickness; from tissue; host or cells: rat heart (right and left atrium) frozen sections, from normal and from hormone-treated gonadectomized rats
T1 sequence (Q6R6I6 1-758): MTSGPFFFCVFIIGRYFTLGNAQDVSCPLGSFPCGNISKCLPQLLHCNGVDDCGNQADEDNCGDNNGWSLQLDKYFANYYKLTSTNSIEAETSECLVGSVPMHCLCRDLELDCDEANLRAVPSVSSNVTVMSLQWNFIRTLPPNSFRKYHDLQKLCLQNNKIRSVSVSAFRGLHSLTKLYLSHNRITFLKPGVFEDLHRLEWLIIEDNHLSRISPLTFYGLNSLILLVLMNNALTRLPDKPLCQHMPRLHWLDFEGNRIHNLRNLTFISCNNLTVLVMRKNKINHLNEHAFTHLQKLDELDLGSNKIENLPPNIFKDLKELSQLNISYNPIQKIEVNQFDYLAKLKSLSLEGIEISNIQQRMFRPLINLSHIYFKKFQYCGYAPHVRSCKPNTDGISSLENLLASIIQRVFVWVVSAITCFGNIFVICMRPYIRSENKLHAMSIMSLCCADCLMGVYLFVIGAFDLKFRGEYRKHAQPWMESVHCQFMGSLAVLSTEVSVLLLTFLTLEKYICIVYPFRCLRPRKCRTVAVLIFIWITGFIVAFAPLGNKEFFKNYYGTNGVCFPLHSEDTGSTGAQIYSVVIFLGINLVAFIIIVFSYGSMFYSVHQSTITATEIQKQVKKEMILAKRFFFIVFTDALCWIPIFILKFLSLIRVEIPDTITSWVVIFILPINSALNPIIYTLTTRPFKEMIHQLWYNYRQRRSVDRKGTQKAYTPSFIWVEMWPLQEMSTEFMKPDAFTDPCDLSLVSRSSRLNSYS
The experiment in a line: Displacement of 32P-relaxin binding in rat heart tissue sections (autoradiography). The note with it: for Kd: read-out: dissociation constant (Kd). The procedure:
Ten-week-old normal male and cyclic female Sprague-Dawley rats (Charles River Breeding Laboratories, Wilmonton, Mass.) were used for binding specificity and binding displacement experiments. These were given food and water ad libidium and housed in a room with the ambient temperature controlled around 21° C.
For hormonal control experiments, 10-11-week-old female rats were ovariectomized for two weeks and then injected s.c. with 10 μg estradiol cyclopentyl propionate in a […] vehicle or with vehicle alone. Likewise, 10-11-week-old male rats were castrated for 2 weeks and were injected with either 10 μg estradiol cyclopentyl propionate, 10 μg testosterone, or vehicle alone. The rats were sacrificed 7 days later by asphyxiation with CO2. The relevant tissues were removed rapidly and frozen in powdered dry ice immediately.
The frozen tissues were sectioned to 16 μm thickness using a Reichert-Jung Model 2800 Frigocut cryostat (Cambridge Instruments). Tissue sections were fixed onto gelatin/chromium potassium sulfate treated microscope slides by warming, and immediately refrozen and stored at -80° C. overnight or longer.
For binding of ^32 P-relaxin to the tissue sections, frozen slides were prewashed with binding buffer (Hank's balanced salt solution supplemented with 20 mMHEPES, pH 7.2, 1 mg/ml BSA, 0.1 mM PMSF, and 1 μg/ml leupeptin) at 4° C. for 1.5-2 hours. The tissue sections were then covered with 600-700 μl of 100 pM ^32 P-relaxin with or without excess unlabeled relaxin and other competing agents as specificity control, and incubated at 4° C. for one hour. The slides were washed 3 times for 15-30 minutes each, with binding buffer. The slides were air-dried and mounted on filter paper and exposed to Hyperfilm-βMAX (Amersham) for 3-5 days.
Regions of binding were determined by overlaying the autoradiographs with adjacent sections counterstained with hematoxylin-eosin. For relaxin binding displacement experiments, consecutive 16 μm sections were incubated with 100 pM of ^32 P-relaxin in the absence and presence of increasing concentrations (serial three-fold increases) of unlabeled relaxin in the range of 0.1-100 nM. Pseudocolor reconstruction and quantitative analysis of ^32 P-relaxin binding autoradiographs were performed with a RAS-3000 image analysis system (Amersham). The OD or radioactivities (cpm) of bound ^32 P relaxin (maximum binding in a particular region) were quantified by computerized densitometry based on parallel sets of ^32 P-relaxin standards (ranging from 50 to 2000 cpm) blotted onto nitrocellulose membranes (Trans-Blot SF, Bio-Rad, Richmond, Calif.). The binding inhibition data were fit to a four parameter equation to obtain the ED50 (the concentration of unlabeled relaxin yielding 50% displacement of the binding of ^32 p-relaxin). The dissociation constant (Kd) for relaxin was calculated by the method of Cheng and Prusoff [Biochem. Pharmacol. 22, 3099-3108 (1973)].

The nature of assay [2]: Continuous subcutaneous infusion in female SHR and SD rats, uterine weight. Type of assay: in vivo, rat. The note with it: continuous s.c. infusion 1 or 10 ng/min. The procedure: Groups (4 to 9 animals in each group) of conscious, non-pregnant, Spontaneously Hypertensive (SHR) and Sprague-Dawley (SD) female rats weighing about 144-385 g each, were used in this experiment. The rats were anesthetized with ketamine hydrochloride (150 mg/kg) in order to cannulate the left iliac artery and to implant an osmotic pump. All surgery was performed under aseptic conditions. Stretched PE 50 tubing was fitted with an injection cap and flushed with heparinized saline, routed subcutaneously, exteriorized between the capsulae, and passed through a spring tether that is anchored to the skin with a nylon button. Extreme care was taken in cannulating the left iliac artery to avoid damage to collateral circulation and local innervation. An (Alzet) osmotic pump filled with relaxin or vehicle was then inserted into a subcutaneous pocket caudal to the exit point of the cannula.
All wounds were closed with suture, infiltrated with Xylocaine and coated with Betadine. […] Arterial pressure, heart rate, water intake, urine volume and vascular blood volume were measured daily throughout the duration of the experiments.
Arterial pressure and heart rate were measured directly through the arterial cannulae with standard pressure transducers (Stoelting) and strain gauge amplifiers (Stoelting). […]

Assay [3] in a line: Intravenous injection of relaxin, earlier experiments. Type of assay: in vivo.

What is called Kd is the concentration at which binding is half-saturated.

Like-named read-outs stand apart in the source and are kept apart here.

For the substance relaxin, the “displacement of the binding of 100 pM 32P-relaxin” value in assay [1] (100 nM competitor, normal female rat heart) is recorded as “displacement of the binding of 100 pM ^32 P-relaxin by 100 nM unlabeled relaxin”. The “displacement of the binding of 32P-relaxin” value in assay [1] (100 nM unlabeled relaxin, atria of normal male rat heart) is “fully displaced”. Besides, the Kd was 0.86 ± 0.35 nM in assay [1] (atria of estrogen-treated ovariectomized rat heart) and 1.37 ± 0.13 nM in assay [1] (atria of normal female rat heart, displacement of 32P-H2 relaxin, mean±S.E. of two regions). For the same substance, the “extent of displacement of 32P-relaxin binding” value in assay [1] (heart, increasing concentrations of unlabeled relaxin) was “total displacement”. Besides, the uterine weight entry in assay [2] is reported as “increased uterine weights”. Moreover, the heart rate entry in assay [3] is “small but consistent increase in heart rate”. Further, the “systolic and diastolic pressure” value in assay [3] is “decrease in systolic and diastolic pressure”.

Values taken from US5478807A, “Use of relaxin in the treatment of bradycardia” (Genentech, Inc., priority 1992, dated 1995).
